Starred links: 1 amine or outer side, 2 acyl side, 3 side chain; linkers in the order of their positions; H or OH if unused. Non-standard residues stand in square brackets, D forms with d. Residues, ends and D or L forms follow the SMILES beside them. Groups on a side chain read outwards from the residue. *: point of attachment. X3 = CCCCCCCCCCCCCCCCCC(=O)N[C@@H](CCC(=O)N[C@@H](CCC(=O)N[C@@H](CCC(=O)NCCCOCCOCCOCCCNC(=O)CCC(=O)NCCCOCCOCCOCCCNC(=O)CCC(=O)NCCCOCCOCCOCCCN*)C(=O)O)C(=O)O)C(=O)O; X1 = CCCCCCCCCCCCCCCC(=O)N[C@@H](CCC(=O)N[C@@H](CCC(=O)N[C@@H](CCC(=O)NCCCOCCOCCOCCCNC(=O)CCC(=O)NCCCOCCOCCOCCCNC(=O)CCC(=O)NCCCOCCOCCOCCCN*)C(=O)O)C(=O)O)C(=O)O; X14 = CCCCCCCCCCCCCCCCCC(=O)N[C@@H](CCC(=O)N[C@@H](CCC(=O)N[C@@H](CCC(=O)N[C@@H](CCC(=O)NCCCOCCOCCOCCCNC(=O)CCC(=O)NCCCOCCOCCOCCCN*)C(=O)O)C(=O)O)C(=O)O)C(=O)O; X4 = CCCCCCCCCCCCCCCCCC(=O)N[C@@H](CCC(=O)N[C@@H](CCC(=O)N[C@@H](CCC(=O)NCCCOCCOCCOCCCNC(=O)CCC(=O)NCCCOCCOCCOCCCN*)C(=O)O)C(=O)O)C(=O)O; Suc = O=C(CCC(=O)[*:2])[*:1]; αMeK = C[C@](N)(CCCCN)C(=O)O; Aib = CC(C)(N)C(=O)O
Molecular target: T1, RXFP1 (Homo sapiens, UniProt Q9HBX9)
T1 construct: OVCAR5 cells expressing endogenous RXFP1; endogenous in cells; host or cells: OVCAR5
T1 sequence (Q9HBX9 1-757): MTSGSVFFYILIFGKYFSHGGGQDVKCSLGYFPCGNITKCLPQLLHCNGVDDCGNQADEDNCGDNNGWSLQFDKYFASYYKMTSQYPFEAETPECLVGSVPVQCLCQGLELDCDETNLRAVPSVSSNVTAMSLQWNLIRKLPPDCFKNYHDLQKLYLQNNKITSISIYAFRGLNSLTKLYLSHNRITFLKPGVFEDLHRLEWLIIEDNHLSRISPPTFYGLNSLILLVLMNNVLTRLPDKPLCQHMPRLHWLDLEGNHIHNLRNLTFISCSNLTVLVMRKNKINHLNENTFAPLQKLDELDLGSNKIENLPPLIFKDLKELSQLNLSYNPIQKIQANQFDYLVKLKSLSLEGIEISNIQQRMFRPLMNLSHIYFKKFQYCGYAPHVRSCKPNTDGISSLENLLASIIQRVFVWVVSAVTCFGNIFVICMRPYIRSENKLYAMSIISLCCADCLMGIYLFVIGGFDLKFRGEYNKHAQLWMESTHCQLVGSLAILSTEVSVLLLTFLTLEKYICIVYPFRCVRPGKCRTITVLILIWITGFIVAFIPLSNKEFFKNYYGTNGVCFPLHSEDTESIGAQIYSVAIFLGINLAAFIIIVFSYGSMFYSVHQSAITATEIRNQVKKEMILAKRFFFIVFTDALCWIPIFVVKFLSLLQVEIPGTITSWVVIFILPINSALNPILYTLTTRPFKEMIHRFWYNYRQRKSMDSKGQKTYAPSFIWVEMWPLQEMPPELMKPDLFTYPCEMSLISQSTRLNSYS
Test: OVCAR5 cAMP assay (HTRF)
Type: cell-based
Conditions: for EC50: OVCAR 5 cells expressing endogenous RXFP1, cAMP readout; for Emax: OVCAR 5 cells, maximal cAMP relative to H2-relaxin
How it was run: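 Peptide agonism measured as intracellular cAMP (HTRF) after 30 min at 37° C in serum-free medium, following 40 min 1 mM IBMX preincubation of OVCAR5 cells. Nonlinear regression gave EC50; Emax % = 100 × compound maximal cAMP / H2-relaxin maximal cAMP.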

CCCCCCCCCCCCCCCCCC(=O)N[C@@H](CCC(=O)N[C@@H](CCC(=O)N[C@@H](CCC(=O)N[C@@H](CCC(=O)NCCCOCCOCCOCCCNC(=O)CCC(=O)NCCCOCCOCCOCCCNC(=O)CCC(=O)NCCCC[C@H](NC(=O)CNC(=O)[C@H](CCC(=O)O)NC(=O)C(C)(C)NC(=O)C(C)(C)NC(=O)[C@@H](NC(=O)[C@H](CCCCNC(C)=O)NC(=O)[C@H](C)NC(=O)[C@H](CCCNC(=N)N)NC(=O)[C@@H](NC(=O)[C@H](CCCCN)NC(=O)[C@H](CCC(=O)O)NC(=O)[C@H](CCCNC(=N)N)NC(=O)CNC(=O)[C@H](CCC(=O)O)NC(=O)[C@H](CC(C)C)NC(C)=O)C(C)C)[C@@H](C)CC)C(=O)N[C@@H](CO)C(=O)N[C@H](C(=O)N[C@@H](Cc1c[nH]c2ccccc12)C(=O)N[C@@H](CO)C(=O)NC(C)(C)C(=O)N[C@@H](CCCNC(=N)N)C(=O)N[C@@H](CCCCN)C(=O)N[C@@H](CCCCNC(C)=O)C(N)=O)[C@@H](C)O)C(=O)O)C(=O)O)C(=O)O)C(=O)O [compound 54] (Ac-LEGREKVRAK(Ac)I[Aib][Aib]EGK([Suc-X14])STWS[Aib]RKK(Ac)-NH2)
EC50: 0.16 nM
Emax: 96%

CCCCCCCCCCCCCCCCCC(=O)N[C@@H](CCC(=O)N[C@@H](CCC(=O)N[C@@H](CCC(=O)NCCCOCCOCCOCCCNC(=O)CCC(=O)NCCCOCCOCCOCCCNC(=O)CCC(=O)NCCCOCCOCCOCCCNC(=O)CCC(=O)NCCCC[C@H](NC(=O)CNC(=O)[C@H](CCC(=O)O)NC(=O)C(C)(C)NC(=O)C(C)(C)NC(=O)[C@@H](NC(=O)[C@H](CCCCNC(C)=O)NC(=O)[C@H](C)NC(=O)[C@H](CCCNC(=N)N)NC(=O)[C@@H](NC(=O)[C@H](CCCCN)NC(=O)[C@H](CCC(=O)O)NC(=O)[C@H](CCCNC(=N)N)NC(=O)CNC(=O)[C@H](CCC(=O)O)NC(=O)[C@H](CC(C)C)NC(C)=O)C(C)C)[C@@H](C)CC)C(=O)N[C@@H](CO)C(=O)N[C@H](C(=O)N[C@@H](Cc1ccccc1)C(=O)N[C@@H](CO)C(=O)NC(C)(C)C(=O)N[C@@H](CCCNC(=N)N)C(=O)N[C@@H](CCCCN)C(=O)N[C@@H](CCCCNC(C)=O)C(N)=O)[C@@H](C)O)C(=O)O)C(=O)O)C(=O)O [compound 61] (Ac-LEGREKVRAK(Ac)I[Aib][Aib]EGK([Suc-X3])STFS[Aib]RKK(Ac)-NH2)
EC50: 0.1 nM
Emax: 97%

CCCCCCCCCCCCCCCCCC(=O)N[C@@H](CCC(=O)N[C@@H](CCC(=O)N[C@@H](CCC(=O)NCCCOCCOCCOCCCNC(=O)CCC(=O)NCCCOCCOCCOCCCNC(=O)CCC(=O)NCCCC[C@H](NC(=O)CNC(=O)[C@H](CCC(=O)O)NC(=O)C(C)(C)NC(=O)C(C)(C)NC(=O)[C@@H](NC(=O)[C@H](CCCCNC(C)=O)NC(=O)[C@H](C)NC(=O)[C@H](CCCNC(=N)N)NC(=O)[C@@H](NC(=O)[C@H](CCCCN)NC(=O)[C@H](CCC(=O)O)NC(=O)[C@H](CCCNC(=N)N)NC(=O)CNC(=O)[C@H](CCC(=O)O)NC(=O)[C@H](CC(C)C)NC(C)=O)C(C)C)[C@@H](C)CC)C(=O)N[C@@H](CO)C(=O)N[C@H](C(=O)N[C@@H](Cc1ccccc1)C(=O)N[C@@H](CO)C(=O)N[C@@](C)(CCCCN)C(=O)N[C@@H](CCCNC(=N)N)C(=O)N[C@@H](C)C(=O)N[C@@H](CCCCNC(C)=O)C(N)=O)[C@@H](C)O)C(=O)O)C(=O)O)C(=O)O [compound 34] (Ac-LEGREKVRAK(Ac)I[Aib][Aib]EGK([Suc-X4])STFS[αMeK]RAK(Ac)-NH2)
EC50: 0.14 nM
Emax: 90%

CCCCCCCCCCCCCCCC(=O)N[C@@H](CCC(=O)N[C@@H](CCC(=O)N[C@@H](CCC(=O)NCCCOCCOCCOCCCNC(=O)CCC(=O)NCCCOCCOCCOCCCNC(=O)CCC(=O)NCCCOCCOCCOCCCNC(=O)CCC(=O)NCCCC[C@H](NC(=O)CNC(=O)[C@H](CCC(=O)O)NC(=O)C(C)(C)NC(=O)C(C)(C)NC(=O)[C@@H](NC(=O)[C@H](CCCCNC(C)=O)NC(=O)[C@H](C)NC(=O)[C@H](CCCNC(=N)N)NC(=O)[C@@H](NC(=O)[C@H](CCCCN)NC(=O)[C@H](CCC(=O)O)NC(=O)[C@H](CCCNC(=N)N)NC(=O)CNC(=O)[C@H](CCC(=O)O)NC(=O)[C@H](CC(C)C)NC(C)=O)C(C)C)[C@@H](C)CC)C(=O)N[C@@H](CO)C(=O)N[C@H](C(=O)N[C@@H](Cc1ccccc1)C(=O)N[C@@H](CO)C(=O)N[C@@H](CCCNC(=N)N)C(=O)N[C@@H](CCCNC(=N)N)C(=O)N[C@@H](C)C(=O)N[C@@H](CCCCNC(C)=O)C(N)=O)[C@@H](C)O)C(=O)O)C(=O)O)C(=O)O [compound 87] (Ac-LEGREKVRAK(Ac)I[Aib][Aib]EGK([Suc-X1])STFSRRAK(Ac)-NH2)
EC50: 0.1 nM
Emax: 96%

— patent publication US11725036B2, “Modified lipidated relaxin B chain peptides and their therapeutic use” (Sanofi, priority 2018, dated 2023)
